Results taken from patent US9321742B2, “N1-cyclic amine-N5-substituted biguanide derivatives, methods of preparing the same and pharmaceutical composition comprising the same” (IMMUNOMET THERAPEUTICS INC., priority 2011, dated 2016).

Test system: HCT116 cells
Test: Measurement of effect of inhibiting cancer cell proliferation (MTT)
Assay type: cell-based
Details: Homo sapiens, HCT-116, 100 uM, 48 hours, read-out: Cell Growth Inhibition (%) at 100 uM
Text: HCT116 cells derived from human colorectal cancer (commercially available from the Korean Cell Line Bank) were used, and the effect of inhibiting cancer cell proliferation of the biguanide derivative was confirmed by measuring the concentration value (cell growth inhibition concentration, GIC50) at which cell growth was inhibited by 50% using a 3-(4,5-dimethylthiazol-2-yl)-2,5-[…] bromide (MTT) reagent.
First, HCT116 cells were put on a 96-well plate and cultured in a DMEM medium containing 10% fetal bovine serum for 16 hours so that the cellcount in each well was approximately 5,000. Subsequently, to obtain the GIC50 value of each compound, culture media were treated with 100 μM, 25 μM, 6.25 μM, 1.56 μM or 0.39 μM of the compound, and then cultured for 48 hours. At this time, some of the compounds were treated with 200 μM instead of 100 μM. Metformin hydrochloride was used as the control, and the culture media were treated with 25, 12.5, 2.5, 0.5, 0.1 mM metformin hydrochloride, and then tested in the same manner as described in the derivatives synthesized in the examples. In order to determine whether the cells survived after treatment with the compound, MTT was added to the culture media which were then cultured for another 3 hours. Formed formazane crystals were dissolved using dimethyl sulfoxide (DMSO), and the absorbance of the resulting solution was measured at 560 nm. After the 48-hours culture, the ratio of the cell count cultured on a well plate not treated with the compound to the living cell count on a well plate treated with the compounds synthesized in the examples was indicated as cell viability (%) according to each treated concentration. A cell viability curve graph was plotted and the concentration (GIC50) value of the compound at which the growth was inhibited by 50% was calculated to confirm the effect of inhibition of cancer cell proliferation. Also, the cell growth viability (%) when the concentration of the treated biguanide derivative and the metformin hydrochloride as the control were 100 uM was shown.

Row | SMILES | inhibition at 100 µM
1 | Cl.N=C(NCc1c(F)cccc1F)NC(=N)N1CCCCC1 [Example 51, N1-piperidine-N5-(2,6-difluoro)benzyl biguanide hydrochloride] | 96.8%
2 | Cl.N=C(NCc1ccc(F)c(F)c1)NC(=N)N1CCCCC1 [Example 52, N1-piperidine-N5-(3,4-difluoro)benzyl biguanide hydrochloride] | 46.5%
3 | Cl.N=C(NCc1ccc(Cl)cc1Cl)NC(=N)N1CCCCC1 [Example 53, N1-piperidine-N5-(2,4-dichloro)benzyl biguanide hydrochloride] | 63.7%
4 | Cl.N=C(NCc1ccc(Cl)c(Cl)c1)NC(=N)N1CCCC1 [Example 54, N1-pyrrolidine-N5-(3,4-dichloro)benzyl biguanide hydrochloride] | 98%
5 | Cl.N=C(NCc1ccc(Cl)c(Cl)c1)NC(=N)N1CCCCC1 [Example 55, N1-piperidine-N5-(3,4-dichloro)benzyl biguanide hydrochloride] | 97.7%
6 | Cl.N=C(NCCc1cccs1)NC(=N)N1CCCCC1 [Example 56, N1-piperidine-N5-(thiophene-2-yl)ethyl biguanide hydrochloride] | 97.6%
7 | Cl.N=C(NCCc1ccccc1)NC(=N)N1CCCCC1 [Example 58, N1-piperidine-N5-(phenethyl)biguanide hydrochloride] | 32.3%
8 | Cl.N=C(NCCc1ccccc1)NC(=N)N1CCCCCC1 [Example 59, N1-azepane-N5-(phenethyl)biguanide hydrochloride] | 56.6%
9 | Cl.N=C(NCCc1ccc(F)cc1)NC(=N)N1CCCCCC1 [Example 60, N1-azepane-N5-((4-fluoro)phenethyl)biguanide hydrochloride] | 73.7%
10 | Cl.N=C(NCCc1ccc(Cl)cc1)NC(=N)N1CCCCCC1 [Example 61, N1-azepane-N5-((4-chloro)phenethyl)biguanide hydrochloride] | 94.3%

Same assay, conditions: Homo sapiens, HCT-116, 200 uM, 48 hours, read-out: Cell Growth Inhibition (%) at 200 uM

Row | SMILES | inhibition at 200 µM
11 | Cl.N=C(NCCc1ccccc1)NC(=N)N1CCCC1 [Example 57, N1-pyrrolidine-N5-(phenethyl)biguanide hydrochloride] | 23.2%

Same assay, conditions: Homo sapiens, HCT-116, 48 hours

Row | GI50 | SMILES
12 | > 100 µM | Cl.N=C(NCc1c(F)cccc1F)NC(=N)N1CCCCC1 [Example 51, N1-piperidine-N5-(2,6-difluoro)benzyl biguanide hydrochloride]
13 | 76.4 µM | Cl.N=C(NCc1ccc(F)c(F)c1)NC(=N)N1CCCCC1 [Example 52, N1-piperidine-N5-(3,4-difluoro)benzyl biguanide hydrochloride]
14 | 9.1 µM | Cl.N=C(NCc1ccc(Cl)cc1Cl)NC(=N)N1CCCCC1 [Example 53, N1-piperidine-N5-(2,4-dichloro)benzyl biguanide hydrochloride]
15 | 21.1 µM | Cl.N=C(NCc1ccc(Cl)c(Cl)c1)NC(=N)N1CCCC1 [Example 54, N1-pyrrolidine-N5-(3,4-dichloro)benzyl biguanide hydrochloride]
16 | 10.3 µM | Cl.N=C(NCc1ccc(Cl)c(Cl)c1)NC(=N)N1CCCCC1 [Example 55, N1-piperidine-N5-(3,4-dichloro)benzyl biguanide hydrochloride]
17 | 19.8 µM | Cl.N=C(NCCc1ccc(Cl)cc1)NC(=N)N1CCCCCC1 [Example 61, N1-azepane-N5-((4-chloro)phenethyl)biguanide hydrochloride]

Continued, compound first:

Row | SMILES | GI50
18 | Cl.N=C(NCCc1ccccc1)NC(=N)N1CCCC1 [Example 57, N1-pyrrolidine-N5-(phenethyl)biguanide hydrochloride] | > 200 µM
19 | Cl.N=C(NCCc1ccccc1)NC(=N)N1CCCCC1 [Example 58, N1-piperidine-N5-(phenethyl)biguanide hydrochloride] | 43.2 µM
20 | Cl.N=C(NCCc1ccccc1)NC(=N)N1CCCCCC1 [Example 59, N1-azepane-N5-(phenethyl)biguanide hydrochloride] | 21.9 µM
21 | Cl.N=C(NCCc1ccc(F)cc1)NC(=N)N1CCCCCC1 [Example 60, N1-azepane-N5-((4-fluoro)phenethyl)biguanide hydrochloride] | 22.4 µM

Test system: not given
Test: not given
Details: not given

Row | melting point | SMILES
22 | 229 to 232 °C | Cl.N=C(NCc1c(F)cccc1F)NC(=N)N1CCCCC1 [Example 51, N1-piperidine-N5-(2,6-difluoro)benzyl biguanide hydrochloride]
23 | 230 to 232 °C | Cl.N=C(NCc1ccc(F)c(F)c1)NC(=N)N1CCCCC1 [Example 52, N1-piperidine-N5-(3,4-difluoro)benzyl biguanide hydrochloride]
24 | 240 to 241 °C | Cl.N=C(NCc1ccc(Cl)cc1Cl)NC(=N)N1CCCCC1 [Example 53, N1-piperidine-N5-(2,4-dichloro)benzyl biguanide hydrochloride]
25 | 219 to 221 °C | Cl.N=C(NCc1ccc(Cl)c(Cl)c1)NC(=N)N1CCCC1 [Example 54, N1-pyrrolidine-N5-(3,4-dichloro)benzyl biguanide hydrochloride]
26 | 242 to 244 °C | Cl.N=C(NCc1ccc(Cl)c(Cl)c1)NC(=N)N1CCCCC1 [Example 55, N1-piperidine-N5-(3,4-dichloro)benzyl biguanide hydrochloride]
27 | 181 to 183 °C | Cl.N=C(NCCc1ccc(Cl)cc1)NC(=N)N1CCCCCC1 [Example 61, N1-azepane-N5-((4-chloro)phenethyl)biguanide hydrochloride]

More lines, now with the values behind:

Row | SMILES | melting point
28 | Cl.N=C(NCCc1cccs1)NC(=N)N1CCCCC1 [Example 56, N1-piperidine-N5-(thiophene-2-yl)ethyl biguanide hydrochloride] | 176 to 178 °C
29 | Cl.N=C(NCCc1ccccc1)NC(=N)N1CCCC1 [Example 57, N1-pyrrolidine-N5-(phenethyl)biguanide hydrochloride] | 213 to 215 °C
30 | Cl.N=C(NCCc1ccccc1)NC(=N)N1CCCCC1 [Example 58, N1-piperidine-N5-(phenethyl)biguanide hydrochloride] | 235 to 237 °C
31 | Cl.N=C(NCCc1ccccc1)NC(=N)N1CCCCCC1 [Example 59, N1-azepane-N5-(phenethyl)biguanide hydrochloride] | 211 to 213 °C
32 | Cl.N=C(NCCc1ccc(F)cc1)NC(=N)N1CCCCCC1 [Example 60, N1-azepane-N5-((4-fluoro)phenethyl)biguanide hydrochloride] | 211 to 212 °C

Test system: AMPKα
Test: Measurement of AMPK-activation effect (AMPKα Thr172 phosphorylation immunoassay in MCF7 cells)
Assay type: cell-based, human
Details: 10 uM, 24 hours, relative to untreated cells
Procedure: MCF7 cells derived from human breast cancer cells (commercially available from the Korean Cell Line Bank) were used, and the AMPK (5′-AMP-activated protein kinase alpha)-activation effect of the biguanide derivative was confirmed using an AMPKα immunoassay kit (Invitrogen, Catalog No. KH00651).
MCF7 cells were cultured in a DMEM medium supplemented with 10% fetal bovine serum. Thereafter, the cultured MCF7 cells were put into a 6-well plate with approximately 5×10^5 cells per well and cultured in an incubator supplied with 5% CO2. Culture media were treated with the derivatives synthesized in the examples at contents of 5, 10 and 50 μM, and then cultured for 24 hours. Metformin hydrochloride was used as the control, and the culture media were treated with 0.05, 0.5, 1, 2, 5 and 10 mM metformin hydrochloride, and then tested in the same manner as described in the derivatives synthesized in the examples. Subsequently, the cells were lysed according to a method presented in the operation manual of the AMPKα immunoassay kit, and 20 μg of a cell lysate was then yielded through protein assay. Thereafter, the AMPK activation effect was obtained by determining the degree of phosphorylation of 172nd threonine residue (Thr172) of the AMPKα from the cell lysate according to the method presented in the operation manual of the AMPKα immunoassay kit. […] A curve graph showing AMPK activation according to the concentration of the treated compounds was plotted based on the obtained AMPKα activation results, the concentration (activation concentration 150, AC150) value of the compound whose AMPK activation reached 150% was calculated using a GraphPad Prism 5.0 program, and the degrees of AMPK activation were obtained when concentrations of the treated biguanide derivatives were 10 μM and 50 μM and the metformin hydrochloride was 50 μM.

Row | SMILES | AMPK activation effect 10 uM (%)
33 | Cl.N=C(NCc1c(F)cccc1F)NC(=N)N1CCCCC1 [Example 51, N1-piperidine-N5-(2,6-difluoro)benzyl biguanide hydrochloride] | 179%
34 | Cl.N=C(NCc1ccc(F)c(F)c1)NC(=N)N1CCCCC1 [Example 52, N1-piperidine-N5-(3,4-difluoro)benzyl biguanide hydrochloride] | 327%
35 | Cl.N=C(NCc1ccc(Cl)cc1Cl)NC(=N)N1CCCCC1 [Example 53, N1-piperidine-N5-(2,4-dichloro)benzyl biguanide hydrochloride] | 238%
36 | Cl.N=C(NCc1ccc(Cl)c(Cl)c1)NC(=N)N1CCCC1 [Example 54, N1-pyrrolidine-N5-(3,4-dichloro)benzyl biguanide hydrochloride] | 315%
37 | Cl.N=C(NCc1ccc(Cl)c(Cl)c1)NC(=N)N1CCCCC1 [Example 55, N1-piperidine-N5-(3,4-dichloro)benzyl biguanide hydrochloride] | 443%
38 | Cl.N=C(NCCc1cccs1)NC(=N)N1CCCCC1 [Example 56, N1-piperidine-N5-(thiophene-2-yl)ethyl biguanide hydrochloride] | 612%
39 | Cl.N=C(NCCc1ccccc1)NC(=N)N1CCCCC1 [Example 58, N1-piperidine-N5-(phenethyl)biguanide hydrochloride] | 167%
40 | Cl.N=C(NCCc1ccccc1)NC(=N)N1CCCCCC1 [Example 59, N1-azepane-N5-(phenethyl)biguanide hydrochloride] | 194%
41 | Cl.N=C(NCCc1ccc(F)cc1)NC(=N)N1CCCCCC1 [Example 60, N1-azepane-N5-((4-fluoro)phenethyl)biguanide hydrochloride] | 744%
42 | Cl.N=C(NCCc1ccc(Cl)cc1)NC(=N)N1CCCCCC1 [Example 61, N1-azepane-N5-((4-chloro)phenethyl)biguanide hydrochloride] | 1130%

Same assay, conditions: 50 uM, 24 hours, relative to untreated cells

Row | SMILES | AMPK activation effect 50 uM (%)
43 | Cl.N=C(NCc1ccc(F)c(F)c1)NC(=N)N1CCCCC1 [Example 52, N1-piperidine-N5-(3,4-difluoro)benzyl biguanide hydrochloride] | 703%
44 | Cl.N=C(NCc1ccc(Cl)cc1Cl)NC(=N)N1CCCCC1 [Example 53, N1-piperidine-N5-(2,4-dichloro)benzyl biguanide hydrochloride] | 831%
45 | Cl.N=C(NCc1ccc(Cl)c(Cl)c1)NC(=N)N1CCCCC1 [Example 55, N1-piperidine-N5-(3,4-dichloro)benzyl biguanide hydrochloride] | 830%
46 | Cl.N=C(NCCc1ccccc1)NC(=N)N1CCCC1 [Example 57, N1-pyrrolidine-N5-(phenethyl)biguanide hydrochloride] | 391%
47 | Cl.N=C(NCCc1ccccc1)NC(=N)N1CCCCC1 [Example 58, N1-piperidine-N5-(phenethyl)biguanide hydrochloride] | 388%
48 | Cl.N=C(NCCc1ccccc1)NC(=N)N1CCCCCC1 [Example 59, N1-azepane-N5-(phenethyl)biguanide hydrochloride] | 373%
49 | Cl.N=C(NCCc1ccc(F)cc1)NC(=N)N1CCCCCC1 [Example 60, N1-azepane-N5-((4-fluoro)phenethyl)biguanide hydrochloride] | 721%

Same assay, conditions: 24 hours

Row | SMILES | AC150 (concentration at which AMPK activation reached 150%)
50 | Cl.N=C(NCc1c(F)cccc1F)NC(=N)N1CCCCC1 [Example 51, N1-piperidine-N5-(2,6-difluoro)benzyl biguanide hydrochloride] | 2.1 µM
51 | Cl.N=C(NCc1ccc(F)c(F)c1)NC(=N)N1CCCCC1 [Example 52, N1-piperidine-N5-(3,4-difluoro)benzyl biguanide hydrochloride] | 3.8 µM
52 | Cl.N=C(NCc1ccc(Cl)cc1Cl)NC(=N)N1CCCCC1 [Example 53, N1-piperidine-N5-(2,4-dichloro)benzyl biguanide hydrochloride] | 3.5 µM
53 | Cl.N=C(NCc1ccc(Cl)c(Cl)c1)NC(=N)N1CCCC1 [Example 54, N1-pyrrolidine-N5-(3,4-dichloro)benzyl biguanide hydrochloride] | 0.8 µM
54 | Cl.N=C(NCc1ccc(Cl)c(Cl)c1)NC(=N)N1CCCCC1 [Example 55, N1-piperidine-N5-(3,4-dichloro)benzyl biguanide hydrochloride] | 0.9 µM
55 | Cl.N=C(NCCc1cccs1)NC(=N)N1CCCCC1 [Example 56, N1-piperidine-N5-(thiophene-2-yl)ethyl biguanide hydrochloride] | 9.0 µM
56 | Cl.N=C(NCCc1ccccc1)NC(=N)N1CCCC1 [Example 57, N1-pyrrolidine-N5-(phenethyl)biguanide hydrochloride] | 8.1 µM
57 | Cl.N=C(NCCc1ccccc1)NC(=N)N1CCCCC1 [Example 58, N1-piperidine-N5-(phenethyl)biguanide hydrochloride] | 6.4 µM
58 | Cl.N=C(NCCc1ccccc1)NC(=N)N1CCCCCC1 [Example 59, N1-azepane-N5-(phenethyl)biguanide hydrochloride] | 0.7 µM
59 | Cl.N=C(NCCc1ccc(F)cc1)NC(=N)N1CCCCCC1 [Example 60, N1-azepane-N5-((4-fluoro)phenethyl)biguanide hydrochloride] | 0.7 µM
60 | Cl.N=C(NCCc1ccc(Cl)cc1)NC(=N)N1CCCCCC1 [Example 61, N1-azepane-N5-((4-chloro)phenethyl)biguanide hydrochloride] | 0.5 µM
